Counter-ions that a name gives are not always drawn. Like-named read-outs stand apart in the source and are kept apart here.
Assays:
[1] = tested on: Male Sprague Dawley rats on high fat diet; experiment: 11 day rat DIO model (body weight, food intake, hematology, blood chemistries); type: in vivo; conditions: 264 h, read-out: DIO Rat 11-day weight loss vs vehicle; for inhibition in vivo at 1 mg/kg: 1.0 mpk sc
In short: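 Male Sprague Dawley rats on 45% high-fat diet, acclimated 3 days to vehicle injections, then given compound (0.03-1.0 mg/kg) or vehicle (10% DMSO in water) sc once daily for 11 days. Body weight and food intake recorded daily. Blood taken about 2 h after the final dose for hematology and chemistry.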

recombinant human MetAP2 = recombinant human MetAP2 (Homo sapiens (Human), UniProt P50579); experiment: recombinant human MetAP2 enzyme inhibition assay; type: biochemical
Procedure: Compounds are tested for their capacity to inhibit recombinant human MetAP2 activity using the following assay.
Flag tagged Human recombinant MetAP2 expressed and isolated for use as the enzyme source. 10 mM stock solutions of compounds were prepared in 100% DMSO and further diluted in 100% DMSO required concentration to 1 mM stocks. The stock compound solutions and DMSO vehicle controls were diluted to target final compound concentrations using assay buffer to a final concentration of 50 mM HEPES containing 100 mM NaCl, pH adjusted to 7.5. The MAS peptide was formulated to a 7.5 mM stock in distilled water and prior to use further diluted 1:4. […] 40 μl of enzyme was mixed with 100 μl of MnCl2 then further diluted in assay buffer to a final concentration of 16 μg/ml. To test for compound effect on MetAP2 enzyme activity, 5 μl of test compound, 10 μl of MAS substrate/amino acid oxidase mixture, 10 μl of MetAP2 was added to test wells in a 384 well black plate with blank wells containing no enzyme, replaced with 10 μl of assay buffer. All compounds were tested in duplicate on two occasions on the same day.
The plate was sealed with a TopSeal A cover and mixed briefly on an orbital mixer at 900 rpm. The plate was incubated for a further 25 minutes at 25° C. A 5× stock of Amplex buffer was prepared (0.25M sodium phosphate, pH 7.4) and stored at 4° C. […] 25 μl detection reagent was added to each well of the test plate, which was re-sealed and mixed briefly on an orbital shaker.

[2] = tested on: pregnant Sprague Dawley rats (embryo/fetal development)
Excerpt: Study Summary Rat Embryofetal:
The objective of this study design was to evaluate the potential effects of disclosed compounds on embryo/fetal development when given subcutaneously to pregnant rats once every three days during the critical period of organogenesis (Gestation Days 6-18). Female, Sprague Dawley rats, approximately 10 weeks of age, time bred, were ordered from a certified vendor and housed individually housed in stainless steel cages suspended over flush pans, on a 12-hour light-dark cycle (0700-1900) at 20-26° C. and 30-70% humidity. Rats were fed a standard rodent chow and provided water ad libitum. Rats were received and housed in the facility for a period of approximately 1 to 2 days.
Compounds were formulated using 100% DMSO mixed in Sterile Water for Injection, resulting in 2% DMSO solution in water. If necessary, due to limited solubility of a test article, a higher percentage of DMSO solution in water was used. Groups of 8 mated and presumed pregnant female rats were given subcutaneous doses of vehicle or test article, once every three days, beginning on Gestation Day 6 and ending on Gestation Day 18 (Days 6, 9, 12, 15, and 18), maintained two more days, and then euthanized and necropsied on Gestation Day 20. Body weights was recorded for all animals on Gestation Days 5 (purpose of randomization), 6, 9, 12, 15, 18, and 20 (scheduled euthanasia). Food consumption by weight was recorded on Gestation Days 6, 9, 12, 15, 18, and 20 (scheduled termination).
At necropsy, the dams were examined visually for external abnormalities including palpable masses. The abdominal, thoracic, and cranial cavities and their contents were examined for abnormalities and findings will be recorded. The reproductive tract were examined to record the number of ovarian corpora lutea, the number and location of uterine implantation sites noting the position of the cervix, and the number of early resorptions, late resorptions, live fetuses, and dead fetuses. For dead fetuses and late resorptions, crown-to-rump length and weight were recorded, if possible, and the fetus was discarded. For viable fetuses, weight, sex, and grossly visible external abnormalities were recorded.

[3] = tested on: Diet Induced Obese (DIO) C57BL/6 mice; experiment: 10 day DIO mouse model (body weight, food intake, hematology, blood chemistry); type: in vivo; conditions: 240 h, read-out: DIO Mouse 10-day weight loss vs vehicle; for inhibition in vivo at 0.1 mg/kg: 0.1 mpk sc; for inhibition in vivo at 1 mg/kg: 1.0 mpk sc
In short: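 DIO C57BL/6 mice on 60% kcal fat diet received compounds subcutaneously once daily for 10 days at 1.0, 0.5, 0.3, 0.1 or 0.03 mpk, in 10% DMSO in water, after 3-day vehicle acclimation. Body weight and food intake were recorded daily. Hematology and blood chemistry were taken on Day 11, 24 h post-final dose.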

[4] = DIO rat, once a day for 11 days
[5] = recombinant human MetAP2, MAS peptide substrate, 25 minutes at 25° C
[6] = 6 mpk, subcutaneous, once every three days, Gestation Days 6-18, pregnant rats
[7] = DIO mouse, once a day for 10 days
[8] = DIO mouse, 0.3 mpk sc, once a day for 10 days
[9] = DIO rat, 0.3 mpk sc, once a day for 11 days

recombinant human MetAP2, sequence (P50579 whole entry): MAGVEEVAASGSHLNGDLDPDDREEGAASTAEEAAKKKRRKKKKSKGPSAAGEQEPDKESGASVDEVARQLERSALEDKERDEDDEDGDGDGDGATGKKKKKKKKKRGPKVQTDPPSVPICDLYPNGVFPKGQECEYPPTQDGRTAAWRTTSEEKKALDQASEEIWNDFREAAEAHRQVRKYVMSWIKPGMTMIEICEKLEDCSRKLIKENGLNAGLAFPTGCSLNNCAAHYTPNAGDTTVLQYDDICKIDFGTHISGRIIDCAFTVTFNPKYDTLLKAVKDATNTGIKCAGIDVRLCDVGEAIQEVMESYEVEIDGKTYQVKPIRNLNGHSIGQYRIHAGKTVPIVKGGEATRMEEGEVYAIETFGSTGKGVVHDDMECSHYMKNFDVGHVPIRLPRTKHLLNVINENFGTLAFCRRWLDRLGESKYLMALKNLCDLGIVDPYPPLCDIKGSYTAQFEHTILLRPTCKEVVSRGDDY

SMILES: CCN(CC)CCNC(=O)CCC1CN(C(=O)O[C@@H]2CC[C@]3(CO3)[C@@H]([C@@]3(C)O[C@@H]3CC=C(C)C)[C@@H]2OC)C1 [Example 88, (3R,4S,5S,6R)-5-methoxy-4-((2R,3R)-2-methyl-3-(3-methylbut-2-enyl)oxiran-2-yl)-1-oxaspiro[2.5]octan-6-yl 3-(3-(2-(diethylamino)ethylamino)-3-oxopropyl)azetidine-1-carboxylate formate]
- inhibition in vivo at 0.3 mg/kg ([1]; Rattus norvegicus, sc): 4.4%
- IC50 (recombinant human MetAP2): < 50 nM
- Rat Embryofetal @6 mpk ([2]; rat, in vivo): Positive
- inhibition in vivo at 0.3 mg/kg ([3]; Mus musculus, sc): 9%

SMILES: CCN(CC)CCC1CN(C(=O)O[C@@H]2CC[C@]3(CO3)[C@@H]([C@@]3(C)O[C@@H]3CC=C(C)C)[C@@H]2OC)C1 [Example 103, (3R,4S,5S,6R)-5-methoxy-4-((2R,3R)-2-methyl-3-(3-methylbut-2-enyl)oxiran-2-yl)-1-oxaspiro[2.5]octan-6-yl 3-(2-(diethylamino)ethyl)azetidine-1-carboxylate]
- inhibition in vivo at 0.5 mg/kg ([1]; DIO rat, 0.5 mpk sc, once a day for 11 days): 2.57%
- inhibition in vivo at 1 mg/kg [1, 4]: 4.7%
- IC50 (recombinant human MetAP2; [5]): < 50 nM
- Rat Embryofetal @6 mpk [2, 6]: Positive
- inhibition in vivo at 0.1 mg/kg [3, 7]: 5.1%
- inhibition in vivo at 0.3 mg/kg [3, 8]: 6.7%
- inhibition in vivo at 1 mg/kg [3, 7]: 15.8%

SMILES: CNC(=O)OC1CN(C(=O)O[C@@H]2CC[C@]3(CO3)[C@@H]([C@@]3(C)O[C@@H]3CC=C(C)C)[C@@H]2OC)C1 [Example 74, (3R,4S,5S,6R)-5-methoxy-4-((2R,3R)-2-methyl-3-(3-methylbut-2-enyl)oxiran-2-yl)-1-oxaspiro[2.5]octan-6-yl 3-(methylcarbamoyloxy)azetidine-1-carboxylate]
- inhibition in vivo at 0.3 mg/kg [1, 9]: 7.9%
- inhibition in vivo at 1 mg/kg [1, 4]: 6%
- IC50 (recombinant human MetAP2; [5]): < 50 nM
- Rat Embryofetal @6 mpk [2, 6]: Negative
- inhibition in vivo at 0.3 mg/kg [3, 8]: 12.3%

SMILES: CO[C@@H]1[C@H](OC(=O)/C=C/c2ccc(OCCN(C)C)cc2)CC[C@]2(CO2)[C@H]1[C@@]1(C)O[C@@H]1CC=C(C)C [A, [(3R,6R,7S,8S)-7-methoxy-8-[(2R,3R)-2-methyl-3-(3-methylbut-2-enyl)oxiran-2-yl]-2-oxaspiro[2.5]octan-6-yl] (E)-3-[4-[2-(dimethylamino)ethoxy]phenyl]prop-2-enoate, reference compound]
- inhibition in vivo at 0.3 mg/kg [1, 9]: 20%
- Rat Embryofetal @6 mpk [2, 6]: Positive
- inhibition in vivo at 0.3 mg/kg [3, 8]: 18%

SMILES: CO[C@@H]1[C@H](OC(=O)N2CC(OC(=O)N3CCN(C)CC3)C2)CC[C@]2(CO2)[C@H]1[C@@]1(C)O[C@@H]1CC=C(C)C [Example 78, 1-(((3R,4S,5S,6R)-5-methoxy-4-((2R,3R)-2-methyl-3-(3-methylbut-2-enyl)oxiran-2-yl)-1-oxaspiro[2.5]octan-6-yloxy)carbonyl)azetidin-3-yl 4-methylpiperazine-1-carboxylate]
- inhibition in vivo at 0.3 mg/kg [1, 9]: 1.2%
- Rat Embryofetal @6 mpk [2, 6]: Positive
- inhibition in vivo at 0.3 mg/kg [3, 8]: 10.7%

SMILES: CO[C@@H]1[C@H](OC(=O)N2CC(CCN3CC(F)(F)C3)C2)CC[C@]2(CO2)[C@H]1[C@@]1(C)O[C@@H]1CC=C(C)C [Example 2, (3R,4S,5S,6R)-5-methoxy-4-((2R,3R)-2-methyl-3-(3-methylbut-2-enyl)oxiran-2-yl)-1-oxaspiro[2.5]octan-6-yl 3-(2-(3,3-difluoroazetidin-1-yl)ethyl)azetidine-1-carboxylate]
- inhibition in vivo at 0.3 mg/kg [1, 9]: 5.7%
- inhibition in vivo at 1 mg/kg [1, 4]: 6.4%
- Rat Embryofetal @6 mpk [2, 6]: Negative
- inhibition in vivo at 0.1 mg/kg [3, 7]: 14.2%
- inhibition in vivo at 0.3 mg/kg [3, 8]: 19.7%
- inhibition in vivo at 1 mg/kg [3, 7]: 24.2%

Source: patent US9682965B2, “Fumagillol heterocyclic compounds and methods of making and using same” (Zafgen, Inc., priority 2015, dated 2017)
